Assay results taken from patent US6340783B1, “Rodent models of human amyloidoses” (University of Washington, priority 1992, dated 2002).
Where two headings read alike, the source gives them in different places.

Tests used:
[1] = test system: HSPGs in AA amyloidotic mouse spleen; experiment: In situ binding of BAP (1-28) to AA amyloidotic tissue sections
Excerpt: Six micron sections of paraffin-embedded AA amyloidotic spleen and liver (gift of Dr. Robert Kisilevsky, Kingston, Canada) were used for the in situ binding studies. AA amyloid was induced in CBA/J female mice (6-8 weeks old) using amyloid enhancing factor and silver nitrate, as previously described (Axelrad et al., 1982; Snow and Kisilevsky, 1985).
Immunostaining of tissue sections was accomplished using the avidin-biotin-immunoperoxidase method, employing the appropriate biotin-labeled secondary antibodies, followed by incubation with avidin-conjugated horseradish peroxidase complex (Vector Labs, Burlingame, Calif.). Peroxidase activity was produced by treatment with 3,3-diaminobenzidine as previously described (Snow et al., 1988a). For immunocytochemical staining, the primary antibody was used initially through a series of dilutions to obtain the best specificity with the least background staining. Only results using the optimal dilutions of primary antibody are reported.
Paraffin sections of mouse AA amyloidotic liver or spleen (obtained 4 days after initial AEF+ silver nitrate induction) were treated overnight at 4° C. with a 0.3 mg/ml or 0.5 mg/ml solution of a peptide corresponding to the extracellular domain of BAP (residues 1-28 of BAP or residues 597-624 of BAPP) (Bachem Inc., Torrance, Calif.) in Tris-buffered saline (TBS). After 18 hours, non-bound BAP was removed by extensive washing in 4 changes of TBS. Bound-BAP was then detected by immunostaining tissue sections with either of two BAP polyclonal antibodies as described above. […] These treatments included: 1) 0.50 units/ml of chondroitin ABC lyase (Seikagaku Kogyo Co. Ltd., through ICN Biomedicals) in 0.1 M enriched Tris-acetate buffer (pH 8.0) at 37° C. for 6 hours (Saitoh et al., 1968), 2) a solution of 20% nitrous acid: 33% acetic acid (1:1, volume/volume) incubated at room temperature for 6 hours (Snow et al., 1987) and 3) 10 units/ml of heparinase I and heparitinase I (Sigma, St. Louis, Mo.) in 0.20 M Tris-HCl buffer (pH 7.0) with 20 mM calcium acetate added, at 37° C. for 6 hours. […]

[2] = molecular target: T1, Beta-Amyloid Protein (1-28) (Homo sapiens, UniProt P05067); experiment: Competitive inhibition of 125I-labeled HSPG binding to BAP (1-28) affinity column; settings: for IC50: unlabeled competing ligand, BAP (1-28) affinity column, read-out: concentration at 50% inhibition of 125I-HSPG binding to BAP
T1 construct: residues 1-28 of BAP or residues 597-624 of BAPP; purchased Bachem Inc., Torrance, Calif; host or cells: synthetic peptide
Procedure: ^125I-labeled HSPGs in the presence of increasing concentrations of unlabeled GAGs, or large low density HSPG (from EHS sarcoma) were applied to an Affi-gel 10 column containing BAP (residues 1-28). After nonbound PGs were eluted from the column using TBS+0.1% TX-100, bound PGs were eluted with a step gradient using 15 ml of 1M MgCl2 in TBS+0.1% TX-100, followed by 15 ml of 4M MgCl2 in TBS+0.1% TX-100, and then 10 ml of 8M urea buffer containing 3M NaCl. […] Bars indicate standard error of the mean.
In order to test the specificity of HSPG binding to BAP (1-28), competitive inhibition experiments were also performed. 125-I labeled HSPGs (100,000-200,000 dpm) were mixed with (a) HSPG from EHS sarcoma (Mr approximately 700,000) (Kato et al., 1988) (gift of Dr. Koji Kimata, Aichi, Japan), (b) heparin from porcine intestinal mucosa (Mr˜11,000; Sigma, St. Louis, Mo.), (c) chondroitin-6-sulfate from shark cartilage (Mr˜59,000; Sigma, St. Louis, Mo.), or (d) […] dextran sulfate (Mr˜110,000; Pharmacia Fine Chemicals, Uppsala, Sweden). The samples were incubated on a rotator for 2 hours at room temperature and then applied to the BAP (1-28) column. Columns were run and eluted with step gradients (1 to 4 M MgCl2) as described above.
Purified iodinated HSPGs were combined with various concentrations of unlabeled competing ligands and applied to a BAP (1-28) affinity column (FIG. 10).

fibronectin = fibronectin (Homo sapiens, UniProt P02751); settings: via the core protein; cited from earlier work
BAP (residues 1-28) = molecular target: T2, BAP (residues 1-28) (Homo sapiens, UniProt P05067); experiment: Affinity column chromatography of labeled proteoglycans on BAP (1-28) Affi-gel 10 column; type: binding; settings: after heparitinase/heparinase digestion
T2 construct: residues 1-28 of BAP or residues 597-624 of BAPP; purchased Bachem Inc., Torrance, Calif; host or cells: synthetic peptide
Procedure: Approximately 500,000 dpm of ^35S-sulfate labeled PGs isolated from the culture media of ECs were applied to Affi-gel 10 affinity columns containing approximately 0.45 mg of 1) residues 1-28 of BAP, 2) residues 410-429, a region of BAPP present in the extracellular domain, or 3) bovine serum albumin. The labeled PGs were left on the column for 1 hour, after which non-bound radiolabelled PGs were eluted with 25 ml (50 0.5 ml fractions) of TBS+0.1% TX-100 and collected on a fraction collector. Bound PGs were then eluted from the column with 15 mls of 4M MgCl2 in TBS+0.1% TX-100.
0.5 mg or 1.0 mg of ligands consisting of 1) BAP (1-28) (Bachem Inc., Torrance, Calif.), 2) a peptide corresponding to residues 410-429 of the BAPP (gift of Dr. Dennis Selkoe, Boston, U.S.A.) or 3) bovine serum albumin (BSA fraction V, Boehringer, Mannheim Biochemical) were dissolved initially in 400 μl of double distilled water to which was added an equal volume of 0.2 M HEPES buffer (pH 7.5) containing 160 mM calcium chloride. The ligand solutions were added to 0.8-1.0 ml of Affi-gel 10 (Biorad, Richmond, Calif.) and coupling was allowed to proceed for 4 hours at 4° C., after which 1/10 volume of IM ethanolamine (pH 8.0) was added and incubation continued for an additional 1-2 hours to block remaining unreacted ester groups. Gel coupled ligand was then transferred to Biorad Econo-columns and washed with TBS in 0.1% Triton-X 100. To assess the amount of bound ligand, soluble (nonbound) protein remaining in the wash buffer was assayed. The affinity columns coupled approximately 90% of ligand initially applied (i.e. 0.45 mg or 0.90 mg).
^35S-sulfate labeled PGs isolated from the culture media (360,000 dpm) of ECs and SMCs were applied to Affi-gel 10 columns containing 1) BAP (residues 1-28), 2) BAPP (residues 410-429) or 3) Bovine serum albumin. The labeled PGs were allowed to interact with the affinity gel for 1 hour (preliminary experiments indicated maximum binding efficiency at 1 hour) and non-bound radiolabelled PGs were eluted with 25 ml of TBS+0.1% Triton X-100 (TBS-TX 100). Bound PGs were eluted with either a single-step gradient using 15 mls of 4M MgCl2 in TBS-TX 100 or a linear gradient of 0 to 4M MgCl2 in TBS-TX 100. In some experiments, columns were further eluted with 15 ml of 8M urea in 50 mM Tris-HCl (pH 7.5), with 0.5% Triton X-100 and 3M NaCl. The radioactivity per fraction was determined by scintillation counting. Most experiments were repeated a minimum of three times. Recoveries of applied radioactivity from the affinity columns ranged from 80-95%.

BAPP-751 = molecular target: T3, BAPP-751 (Homo sapiens, UniProt P05067); settings: single binding site; cited from earlier work
T3 construct: host or cells: baculovirus-derived

[3] = molecular target: basic fibroblast growth factor (Homo sapiens, UniProt P09038); settings: mediated by heparan sulfate GAG chains; cited from earlier work
BAPP-770 = molecular target: T4, BAPP-770 (Homo sapiens, UniProt P05067); settings: single binding site; cited from earlier work
T4 construct: host or cells: baculovirus-derived

BAPP-695 = molecular target: T5, BAPP-695 (Homo sapiens, UniProt P05067); settings: single binding site; cited from earlier work
T5 construct: host or cells: baculovirus-derived

[4] = test system: β/A4 amyloid deposition in rat hippocampus; experiment: Rat infusion model of β/A4 amyloid deposition in hippocampus; type: in vivo
Procedure: For infusion studies, all reagents were dissolved and stored at 4° C. the night prior to surgery. β/A4 (residues 1-40; Bachem California Inc., Torrance, Calif.; Lot #ZJ209) was initially dissolved at 10 mg/ml in 35% acetonitrile (stock solution), with the final diluted concentration of acetonitrile less than 3% in animals infused with β/A4 or its vehicle (see below). Perlecan (basement membrane derived HSPG) and heparan sulfate (HS) GAGs were isolated and purified from the mouse Engelbreth-Holm-Swarm (EHS) sarcoma as described (6), and dissolved in sterile saline at 5 mg/ml and 10 mg/ml, respectively. Male Sprague-Dawley rats (250-300 gms; 3 months old; Harlan Sprague Dawley) were implanted with Alzet 2002 minipumps delivering the following solutions directly into hippocampus at a flow rate of 0.5 μl per hour for one week (7); 1) β/A4 (7.5 μl stock) & HSPG (92.5 μl stock), 6 animals; 2) β/A4 (7.5 μl stock) & HS GAGs (92.5 μl stock), 4 animals; 3) β/A4 (7.5 μl stock) & saline (92.5 μl), 6 animals; 4) HSPG only (100 μl), 4 animals; 5) HS GAGs only (100 μl), 4 animals; 6) saline only (100 μl), 4 animals; and 7) 35% acetonitrile (β/A4 vehicle, 7.5 μl) & saline (92.5 μl), 2 animals. High concentrations of these reagents were chosen to maximize possible effects following infusion into brain. The approximate quantity of β/A4 peptide infused into brain by the end of 1 week in each animal having β/A4 (1-40) as part of the infusate was 75 μg, at least 5 times the amount previously reported in rat models employing single acute injections (8, 9). After one week of continuous infusion, rats were sacrificed by overdose with pentobarbital and perfused with 100 ml of saline followed by 150 ml of 4% paraformaldehyde buffered with phosphate (pH 7.4), postfixed for 24 hours and transferred to phosphate buffered saline for paraffin embedding. Once embedded, consecutive 6 μm serial sections were cut and placed on poly-D-lysine coated slides. Two additional animals in the β/A4 only and the β/A4 & HSPG groups were processed for electron microscopy as described (10).
Detection of infused macromolecules was monitored using two polyclonal antibodies against synthetic β/A4 (either against β/A4 1-28 or 1-40) (13), and two monoclonal antibodies recognizing either HS GAGs (HK-249) (14) or the core protein of perlecan (HK-102) (15). Additionally, two polyclonal antibodies recognizing the core protein of perlecan (17) assessed effects of infused macromolecules (16) on endogenous brain HSPGs. Detection of other AD-like markers included Alz-50 antibody immunostaining (18), and silver staining by the modified Bielschowsky method (19). Possible inflammation-associated amyloid protein involvement was monitored by AA amyloid protein immunostaining (20). The presence of other cell types such as astrocytes was detected by immunostaining with a polyclonal antibody to glial fibrillary acidic protein (GFAP) (1:10,000 dilution; Dako), whereas microglia/macrophage infiltration was detected using a rat monoclonal antibody known as ED1 (1:2500 dilution; Serotec). For all immunostaining, negative controls consisted of using Tris-buffered saline (TBS) instead of the primary antibody, and/or preabsorption experiments using the primary antibody in the presence of excess antigen. In order to quantify possible staining and/or immunostaining differences between the various infusion groups, slides were scored blindly by two independent investigators as described (21) (Table 1; see FIG. 35).
7. Rats were anesthetized with pentobarbital (50 mg/kg) and a 27 gauge steel cannula was stereotactically implanted into the hippocampus using bregma as reference point (AP −4.8; ML 3.5; DV 4), and secured to the skull by machine screws and dental acrylic. The cannula was connected via a 15 cm coil of vinyl tubing to a model 2002 osmotic minipump (Alzet Inc.) placed subcutaneously beneath the shoulder blades. […]

basic fibroblast growth factor, sequence (P09038 143-288, species assumed): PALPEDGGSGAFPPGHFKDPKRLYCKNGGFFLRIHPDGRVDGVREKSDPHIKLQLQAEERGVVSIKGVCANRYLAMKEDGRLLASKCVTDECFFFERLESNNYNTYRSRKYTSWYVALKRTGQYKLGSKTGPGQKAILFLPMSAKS
fibronectin, sequence (P02751 32-2477, species assumed): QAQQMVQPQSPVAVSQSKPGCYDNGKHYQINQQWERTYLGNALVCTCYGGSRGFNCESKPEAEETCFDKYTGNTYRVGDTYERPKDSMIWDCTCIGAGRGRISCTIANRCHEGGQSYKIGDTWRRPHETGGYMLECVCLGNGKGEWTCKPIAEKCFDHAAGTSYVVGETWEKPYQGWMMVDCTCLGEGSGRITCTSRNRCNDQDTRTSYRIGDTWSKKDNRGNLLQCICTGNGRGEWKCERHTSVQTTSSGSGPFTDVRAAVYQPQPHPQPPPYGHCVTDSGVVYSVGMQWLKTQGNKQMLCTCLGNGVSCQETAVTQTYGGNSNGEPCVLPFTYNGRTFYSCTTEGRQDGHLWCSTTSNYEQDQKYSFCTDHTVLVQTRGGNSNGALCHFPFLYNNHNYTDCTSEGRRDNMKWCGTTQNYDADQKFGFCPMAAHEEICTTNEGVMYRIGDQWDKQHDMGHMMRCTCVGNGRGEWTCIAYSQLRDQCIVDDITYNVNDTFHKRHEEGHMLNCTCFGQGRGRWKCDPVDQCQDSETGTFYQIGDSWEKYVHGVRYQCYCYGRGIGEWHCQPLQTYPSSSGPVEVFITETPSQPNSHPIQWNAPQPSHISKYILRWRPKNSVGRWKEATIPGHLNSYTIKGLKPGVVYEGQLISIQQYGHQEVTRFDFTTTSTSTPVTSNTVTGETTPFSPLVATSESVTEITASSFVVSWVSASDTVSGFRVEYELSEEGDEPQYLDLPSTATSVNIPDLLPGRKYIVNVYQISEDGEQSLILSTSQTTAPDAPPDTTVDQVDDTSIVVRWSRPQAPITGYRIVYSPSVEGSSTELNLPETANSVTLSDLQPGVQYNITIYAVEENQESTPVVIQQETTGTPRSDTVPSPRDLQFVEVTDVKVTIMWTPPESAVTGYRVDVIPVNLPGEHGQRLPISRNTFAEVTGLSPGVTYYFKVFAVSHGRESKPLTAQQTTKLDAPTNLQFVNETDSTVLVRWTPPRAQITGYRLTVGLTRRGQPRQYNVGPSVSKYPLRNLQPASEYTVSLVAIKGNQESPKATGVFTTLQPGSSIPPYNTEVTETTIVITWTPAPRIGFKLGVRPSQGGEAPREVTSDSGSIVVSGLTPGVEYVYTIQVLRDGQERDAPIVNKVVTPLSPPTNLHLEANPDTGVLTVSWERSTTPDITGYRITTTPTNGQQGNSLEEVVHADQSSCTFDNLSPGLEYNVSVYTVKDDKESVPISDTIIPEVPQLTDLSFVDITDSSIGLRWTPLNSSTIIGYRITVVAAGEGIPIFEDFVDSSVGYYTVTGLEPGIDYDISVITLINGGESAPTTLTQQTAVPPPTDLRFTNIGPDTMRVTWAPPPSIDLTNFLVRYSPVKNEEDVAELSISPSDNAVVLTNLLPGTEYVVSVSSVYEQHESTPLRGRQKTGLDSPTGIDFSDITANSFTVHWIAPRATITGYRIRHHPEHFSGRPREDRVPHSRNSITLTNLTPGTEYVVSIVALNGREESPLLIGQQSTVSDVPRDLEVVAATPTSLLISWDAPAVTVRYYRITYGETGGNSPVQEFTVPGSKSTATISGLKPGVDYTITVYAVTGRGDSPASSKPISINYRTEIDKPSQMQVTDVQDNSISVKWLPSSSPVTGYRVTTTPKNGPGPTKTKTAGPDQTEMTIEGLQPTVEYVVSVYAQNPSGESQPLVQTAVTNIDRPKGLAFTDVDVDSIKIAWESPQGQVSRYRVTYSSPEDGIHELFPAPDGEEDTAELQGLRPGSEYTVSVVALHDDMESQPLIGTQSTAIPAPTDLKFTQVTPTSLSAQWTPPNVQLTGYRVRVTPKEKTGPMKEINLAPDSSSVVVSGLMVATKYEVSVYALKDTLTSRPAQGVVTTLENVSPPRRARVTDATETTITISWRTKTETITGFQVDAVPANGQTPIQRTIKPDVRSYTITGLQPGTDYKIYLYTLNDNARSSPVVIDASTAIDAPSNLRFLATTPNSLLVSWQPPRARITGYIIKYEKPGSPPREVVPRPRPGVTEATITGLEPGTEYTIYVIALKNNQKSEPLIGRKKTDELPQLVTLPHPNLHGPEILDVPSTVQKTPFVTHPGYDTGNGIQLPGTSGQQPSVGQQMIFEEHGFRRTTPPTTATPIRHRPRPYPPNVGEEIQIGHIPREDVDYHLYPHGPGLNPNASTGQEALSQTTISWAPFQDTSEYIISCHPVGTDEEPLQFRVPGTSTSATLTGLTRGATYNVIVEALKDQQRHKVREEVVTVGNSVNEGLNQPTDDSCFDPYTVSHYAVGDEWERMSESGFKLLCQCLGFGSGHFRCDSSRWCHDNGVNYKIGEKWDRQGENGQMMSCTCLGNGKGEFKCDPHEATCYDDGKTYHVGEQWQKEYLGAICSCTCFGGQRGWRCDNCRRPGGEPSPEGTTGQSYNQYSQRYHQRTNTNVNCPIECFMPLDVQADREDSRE

## synthetic BAP (residues 1-28): peptide corresponding to the extracellular domain of BAP (residues 1-28 of BAP or 597-624 of BAPP), Bachem
[1]; sections pretreated overnight at 4° C. with peptide
  BAP immunoreactivity at sites of HSPG accumulation after peptide pretreatment: strong positive immunoreactivity
[1]; sections pretreated with acetic acid or chondroitin ABC lyase
  change in BAP immunostaining: little to no decrease
[1]; sections pretreated with nitrous acid or heparitinase/heparinase
  change in BAP immunoreactivity: some loss

## heparin [reference compound]
[2]
  IC50: 10000 nM

## high Mr HSPG of human lung fibroblasts: high Mr HSPG of human lung fibroblasts (Heremans et al. 1990)
fibronectin
  Kd: 2 nM

## heparitinase-digested ^125I-labeled HSPGs: 125I-labeled HSPG digested with a heparitinase/heparinase mixture (core protein)
BAP (residues 1-28)
  HSPGs still able to bind to the BAP column in comparison to undigested controls: 61%

## EHS basement-membrane HSPG: basement membrane derived heparan sulfate proteoglycan (perlecan) from mouse Engelbreth-Holm-Swarm sarcoma, Mr approximately 700,000
BAPP-751
  Kd: 10 nM
[3]
  Kd: 30000 nM
BAPP-770
  Kd: 9 nM
BAPP-695
  Kd: 0.9 nM
[4]; 1 week infusion
  Alz-50 immunostaining adjacent to infusion site: Lack
[2]; listed as EHS HSPG
  inhibition of binding of 125I-labeled HSPGs to the BAP (in words): more effective competitor
[2]; listed as isolated basement membrane HSPG
  inhibition of binding of 125I-labeled HSPGs to the BAP (in words): strongly inhibited
[2]
  IC50: < 1000 nM

## β/A4 (1-40): synthetic β/A4 residues 1-40; Bachem California Inc.
[4]; 1-week infusion groups
  HSPG core protein immunostaining score versus groups where HSPG was part of the infusate: not significantly different
  scoring of congo red staining: significant increase
  scoring of thioflavin S fluorescence: significant increase
[4]; 1 week continuous infusion into hippocampus
  animals demonstrating deposition of congophilic amyloid material in brain: 4 of 6
[4]; 1 week, HSPG not part of the infusate
  animals with (endogenous) HSPG immunostaining: four

## chondroitin-6-sulfate [reference compound]
[2]
  inhibition of binding of 125I-labeled HSPGs to the BAP (in words): not
[2]; at all concentrations except 100 uM
  competition for binding of 125I-labeled HSPG to BAP: unable to compete
